Literature values, collected in US20140350097A1, “TREATMENT OF HYPOTENSION ASSOCIATED WITH HEMODIALYSIS” (priority 2013, published 2014).

Assays:
[1] = tested on: normal animals and animals with hypotensive shock; conditions: cited from earlier work
[2] = tested on: LPS-induced hypotension in animals; conditions: intravenous injection; cited from earlier work

## CNC(=N)NCCC[C@H](N)C(=O)O [N-monomethyl-L-arginine, N^G-monomethyl-L-arginine]
[1]
  effect on blood pressure: can cause hypertension
[2]
  effect on LPS-induced hypotension: reverse LPS-induced hypotension
